Laboratory results published in patent US7557268B1, “Promoter for expression of a gene and response to infection or wounding” (priority 1999, dated 2009).
Read-outs that look alike come from different tables or passages of the source.

Assays:
[1] = test system: sugar beet promoter (gus reporter) in transgenic rape lines AG5947-t38, AG5947-t48; experiment: Induction of the promoter in leaf disks of transgenic rape by salicylic acid and PMG-elicitor; assay type: cell-based; details: SA 0.5 mM, PMG-Elicitor 25 μg/ml
Source text: In order to examine the effect of salicylic acid and a purified PMG-elicitor from the cell wall of Phytophthora sojae (Valent, 1978) on the promoter activity, leaf disks with a diameter of 14 mm were stamped out of the leaves of greenhouse plants with the aid of a cork punch. The use of leaf disks facilitates the uptake of the salicylic acid or as the case may be the elicitor along the wound edge into the leaf tissue. Respectively 10 leaf disks from leaves of the transformed AG5947-t38 and […] were incubated in 90 mm sized petri dishes in salicylic acid containing medium (LS-medium without sucrose, 5 mM MES pH 7.0, 0.5 mM SA), in PMG-elicitor containing medium (LS-medium without sucrose, 5 mM MES pH 7.0, 25 μg elicitor/ml) or in control medium (LS-medium without sucrose, 5 mM MES pH 7.0) for 16 hours at 24° C. The activity of a promoter is described as in Jefferson (1987) measured by a quantitative determination of the GUS-activity.

[2] = test system: sugar beet promoter (pAG5947-trans, gus reporter) in transgenic tobacco PR1-52; experiment: Promoter activity in leaf disks of transgenic tobacco PR1-52 with increasing plant age; assay type: cell-based, Nicotianum tabacum cv. SR1; details: for Separated + SA Specific GUS-Activity: leaf disks, 0.5 mM SA, 16 hours; for SA-Induction: vs fresh harvested control leaves
Experimental: […] SR1. The produced tobacco transformates are given identification PR1-52, PR1-54 and PR1-56. The transformate PR1-52 is multiplied and placed in a greenhouse. After the plant has achieved a height of approximately 20 cm, the activatability of the sugar beet promoter is analyzed depending upon the plant age. For this, 6 leaves of different ages on the plant were selected. The oldest, lowest leaf is given reference number 1 and the youngest, highest leaf is given the reference number 6. From the leaf half of one of each leaf there is stamped out, with the aid of a 14 mm cork punch, respectively 15 equally sized leaf disks. Respectively 5 leaf disks are incubated in 90 mm sized petri dishes in salicylic acid containing medium (LS-Medium without Sucrose, 5 mM MES pH 7.0, 0.5 mM SA), in PMG-elicitor containing medium (LS-Medium without Sucrose, 5 mM MES pH 7.0, 1 unit elicitor/ml) or in control medium (LS-Medium without Sucrose, 5 mM MES pH 7.0) for 16 hours at 24° C. On the next day, from each treated leaf half again 5 disks were stamped out for control purposes. The activity of the promoter in these disks as well as the disks incubated over night were measured according to Jefferson (1987) by a quantitative determination of the GUS-activity. After 16 days the corresponding test is repeated with the still intact leaf halves of the leaves 1-6. The tobacco plant is in the meantime grown and approximately 50-60 cm high. […] The promoter activity increases with increasing age of the transgenic plants. The wounding or as the case may be the elicitation or as the case may be salicylic acid application leads, in the reporter gene plant with high plant age, in all examined leaves to a higher reporter gene activity and therewith promoter activity. The plant age has however no influence on the relative induction of the promoter by wounding, elicitation or salicylic acid application.

[3] = test system: SR1 non-transgenic starting line; experiment: GUS activity in leaf disks of the non-transgenic tobacco starting line; assay type: cell-based
[4] = test system: pAG2339 promoter deletion (gus reporter) in PR8-2, PR8-3, PR8-12; assay type: cell-based, tobacco; details: leaf disks, SA
[5] = test system: pAG516 promoter deletion (gus reporter) in PR4-19, PR4-21, PR4-22; experiment: Promoter activity of deletion construct pAG516 in leaf disks of transgenic tobacco; assay type: cell-based; details: for Separated + SA Specific GUS Activity: leaf disks; for SA-Induction: vs fresh harvested control leaves
[6] = test system: promoter activity (transcript amount) in leaves of sugar beets; experiment: Activation of the promoter in sugar beet leaf disks by salicylic acid, RNA-blot with phosphoimager; assay type: cell-based; details: for transcript amount formed by the promoter activity: sugar beet leaf disks, 2.0 mM Salicyclic Acid
Experimental: In order to investigate the reaction of the promoter in sugar beet leaves to abiotic triggers such as wounds or, as the case may be, on the effect of resistance inductors such as salicylic acid, leaf disks (1 cm diameter) were punched out of 12 week old sugar beets with the aid of a cork stamp. Respectively 100 leaf disks were incubated in control medium (LS-Medium without Sucrose, 5 mM MES pH 7.0) or in salicylic acid containing medium (LS-Medium without Sucrose, 5 mM MES pH 7.0, 2.0 mM SA) for 16 hours at 24° C. Total cell RNA was isolated and an RNA-blot analysis was carried out as described above. The intensity of the hybridization as signal on the RNA-blot was quantified with the aid of a Phosphoimager. The promoter activity of the disks in the control set is not constant over the experiment (Table 8). Based on the 0 hour value, the promoter activity in the control set falls slightly after 3 hours, only to then increase over 6 hours and 11 hours until the 24 hour value. After 24 hours the transcript amount in the control set is approximately 3-fold higher than in the beginning of the experiment (0 h). This rise in the promoter activity is to be traced back to the wounding of the leaf tissue during the stamping out of the leaf disks. […] In the salicylic acid containing medium there is likewise a rise in the transcript amount depending upon the time (Table 8). […] Thus the transcript amount after 24 hours is approximately the 8.5-fold of the 0 h value. The cause of the higher activity of the promoter in the salicylic acid containing medium is the inducibility of the promoter by salicylic acid.

[7] = test system: pAG5947-trans promoter (gus reporter) in PR1-52, PR1-54, PR1-56; experiment: Promoter activity of pAG5947-trans in leaf disks of transgenic tobacco; assay type: cell-based; details: for SA-Induction: vs fresh harvested control leaves

`O=C(O)c1ccccc1O` [SA, salicylic acid] was tested. Which “AG5947-t38 Specific GUS-Activities” value ([1]; AG5947-t38 leaf disks, 16 hours at 24° C.) did it give?
Its value is 485.3 pMol Mu × min^−1 × mg^−1.

What about the “AG5947-t38 Induction” value ([1]; AG5947-t38 leaf disks, vs control medium) of the same compound?
Its value is 19.8.

And the “AG5947-t48 Specific GUS-Activity” value ([1]; AG5947-t48 leaf disks, 16 hours at 24° C.)?
The value was 17.2 pMol Mu × min^−1 × mg^−1.

What about the “AG5947-t48 Induction” value ([1]; AG5947-t48 leaf disks, vs control medium) of the same compound?
The value was 9.2.

And the “Separated + SA Specific GUS-Activity” value ([2]; PR1-52, Leaf 1, t = 0 d)?
Its value is 314.92 pMol Mu × min^−1 × mg^−1.

What about the SA-Induction ([2]; PR1-52, Leaf 1, t = 0 d) of the same compound?
The SA-Induction was 5.3.

And the “Separated + SA Specific GUS-Activity” value ([2]; PR1-52, Leaf 1, t = 16 d)?
Its value is 861.82 pMol Mu × min^−1 × mg^−1.

And the SA-Induction ([2]; PR1-52, Leaf 1, t = 16 d)?
Its SA-Induction is 30.5.

And the “Separated + SA Specific GUS-Activity” value ([2]; PR1-52, Leaf 2, t = 0 d)?
The value was 205.53 pMol Mu × min^−1 × mg^−1.

And the SA-Induction ([2]; PR1-52, Leaf 2, t = 0 d)?
Its SA-Induction is 13.6.

What about the “Separated + SA Specific GUS-Activity” value ([2]; PR1-52, Leaf 2, t = 16 d) of the same compound?
Its value is 2358.18 pMol Mu × min^−1 × mg^−1.

And the SA-Induction ([2]; PR1-52, Leaf 2, t = 16 d)?
The SA-Induction was 30.7.

And the “Separated + SA Specific GUS-Activity” value ([2]; PR1-52, Leaf 3, t = 0 d)?
The value was 225.07 pMol Mu × min^−1 × mg^−1.

And the SA-Induction ([2]; PR1-52, Leaf 3, t = 0 d)?
Its SA-Induction is 21.7.

What about the “Separated + SA Specific GUS-Activity” value ([2]; PR1-52, Leaf 3, t = 16 d) of the same compound?
The value was 555.62 pMol Mu × min^−1 × mg^−1.

And the SA-Induction ([2]; PR1-52, Leaf 3, t = 16 d)?
The SA-Induction was 8.8.

And the “Separated + SA Specific GUS-Activity” value ([2]; PR1-52, Leaf 4, t = 0 d)?
The value was 117.97 pMol Mu × min^−1 × mg^−1.

And the SA-Induction ([2]; PR1-52, Leaf 4, t = 0 d)?
The SA-Induction was 25.7.

And the “Separated + SA Specific GUS-Activity” value ([2]; PR1-52, Leaf 4, t = 16 d)?
Its value is 1561.3 pMol Mu × min^−1 × mg^−1.

And the SA-Induction ([2]; PR1-52, Leaf 4, t = 16 d)?
Its SA-Induction is 44.5.

And the “Separated + SA Specific GUS-Activity” value ([2]; PR1-52, Leaf 5, t = 0 d)?
Its value is 140.37 pMol Mu × min^−1 × mg^−1.

And the SA-Induction ([2]; PR1-52, Leaf 5, t = 0 d)?
The SA-Induction was 29.4.

What about the “Separated + SA Specific GUS-Activity” value ([2]; PR1-52, Leaf 5, t = 16 d) of the same compound?
Its value is 1220.71 pMol Mu × min^−1 × mg^−1.

What about the SA-Induction ([2]; PR1-52, Leaf 5, t = 16 d) of the same compound?
The SA-Induction was 9.0.

What about the “Separated + SA Specific GUS-Activity” value ([2]; PR1-52, Leaf 6, t = 0 d) of the same compound?
The value was 106.35 pMol Mu × min^−1 × mg^−1.

What about the SA-Induction ([2]; PR1-52, Leaf 6, t = 0 d) of the same compound?
The SA-Induction was 319.4.

And the “Separated + SA Specific GUS-Activity” value ([2]; PR1-52, Leaf 6, t = 16 d)?
The value was 1003.47 pMol Mu × min^−1 × mg^−1.

And the SA-Induction ([2]; PR1-52, Leaf 6, t = 16 d)?
The SA-Induction was 47.0.

And the “Separated + SA Specific GUS Activity” value ([3]; leaf disks, SA)?
Its value is 6.2 pMol Mu × min^−1 × mg^−1.

And the SA-Induction ([3]; vs fresh harvested control leaves)?
Its SA-Induction is 0.8.

What about the “Separated + SA Specific GUS Activity” value ([4]; PR8-2 (pAG2339)) of the same compound?
The value was 1.7 pMol Mu × min^−1 × mg^−1.

And the “Separated + SA Specific GUS Activity” value ([4]; PR8-3 (pAG2339))?
The value was 0 pMol Mu × min^−1 × mg^−1.

What about the “Separated + SA Specific GUS Activity” value ([4]; PR8-12 (pAG2339)) of the same compound?
The value was 0 pMol Mu × min^−1 × mg^−1.

What about the “Separated + SA Specific GUS Activity” value ([5]; PR4-19 (pAG516)) of the same compound?
The value was 16.6 pMol Mu × min^−1 × mg^−1.

And the SA-Induction ([5]; PR4-19 (pAG516))?
The SA-Induction was 2.3.

What about the “Separated + SA Specific GUS Activity” value ([5]; PR4-21 (pAG516)) of the same compound?
The value was 21.3 pMol Mu × min^−1 × mg^−1.

What about the SA-Induction ([5]; PR4-21 (pAG516)) of the same compound?
The SA-Induction was 0.6.

And the “Separated + SA Specific GUS Activity” value ([5]; PR4-22 (pAG516))?
Its value is 19.3 pMol Mu × min^−1 × mg^−1.

What about the SA-Induction ([5]; PR4-22 (pAG516)) of the same compound?
Its SA-Induction is 3.6.

What about the “SA-inducibility (in words)” value ([5]; plants transformed with the construct pAG516, leaf disks) of the same compound?
Its value is “small SA-inducibility”.

And the “transcript amount after 24 hours relative to the 0 h value” ([6]; sugar beet leaf disks in salicylic acid containing medium (2.0 mM SA))?
Its value is about 8.5 fold.

What about the “transcript amount formed by the promoter activity” value (“transcript amount formed” below) ([6]; Time 0 h) of the same compound?
Its value is 81 PSL (photo stimulated luminescence)-units.

What about the “transcript amount formed” value ([6]; Time 3 h) of the same compound?
Its value is 107 PSL (photo stimulated luminescence)-units.

And the “transcript amount formed” value ([6]; Time 6 h)?
The value was 284 PSL (photo stimulated luminescence)-units.

What about the “transcript amount formed” value ([6]; Time 11 h) of the same compound?
The value was 513 PSL (photo stimulated luminescence)-units.

And the “transcript amount formed” value ([6]; Time 24 h)?
The value was 688 PSL (photo stimulated luminescence)-units.

And the “Separated + SA Specific GUS Activity” value ([7]; PR1-52 (pAG5947-trans), leaf disks)?
The value was 218.93 pMol Mu × min^−1 × mg^−1.

And the SA-Induction ([7]; PR1-52 (pAG5947-trans))?
Its SA-Induction is 14.5.

What about the “Separated + SA Specific GUS Activity” value ([7]; PR1-54 (pAG5947-trans), leaf disks) of the same compound?
Its value is 167.83 pMol Mu × min^−1 × mg^−1.

What about the SA-Induction ([7]; PR1-54 (pAG5947-trans)) of the same compound?
The SA-Induction was 8.0.

What about the “Separated + SA Specific GUS Activity” value ([7]; PR1-56 (pAG5947-trans), leaf disks) of the same compound?
The value was 661.19 pMol Mu × min^−1 × mg^−1.

And the SA-Induction ([7]; PR1-56 (pAG5947-trans))?
Its SA-Induction is 8.3.

What about the “change of reporter gene / promoter activity (in words)” value ([7]; lines PR1-52, PR1-54 and PR1-56 transformed with pAG5947-trans, leaf disks) of the same compound?
The value was “significant induction”.
